In patent publication US20230183216A1, “PYRIDIZIN-3(2H)-ONE DERIVATIVES” (Gilead Sciences, Inc., priority 2021, published 2023):

How the values were obtained:
[1] = system: STAT1 (phosphorylated at Tyr701) in NCI-H1373 cells; experiment: Phospho-STAT1 (Tyr701) LANCE Ultra TR-FRET Detection Assay; assay type: cell-based; conditions: Homo sapiens, 48 hours, induction of pSTAT1, normalized to 10 uM positive control and DMSO, 4-parameter fit, read-out: NH1373 pSTAT1 EC50
Protocol: Phospho-STAT1 (Tyr701 LANCE Ultra TR-FRET Detection Assay
LANCE Ultra phospho-STAT1 (Tyr701) kits available from Perkin Elmer are designed for the detection of phosphorylated STAT1 in cell lysates using a simple, homogeneous LANCE Ultra sandwich assay (Cat. #TRF4028M). This assay is intended for assessing compound induction of endogenous levels of cellular STAT1 (phosphorylated at Tyr701) in NCI-H1373 cells. The NCI-H1373 cells are cultured in RPMI 1640 media containing 10% heat inactivated FBS, GlutaMAX, 1% Penicillin-Streptomycin. An Echo acoustic liquid handler is used to transfer 60 nanoliters of compound dilutions using the Echo Qualified, 384-well polypropylene microplate clear flat bottom source plates into a Greiner (#781080) cell culture microplate. NCI-H1373 cells are seeded into these compound-spotted culture plates at 30,000 cells/well in a 60 uL volume in growth media. The plates are incubated in a 5% CO2 humidified incubator at 37° C. for 48 hours. […] Briefly, 20 μL of supplemented lysis buffer is added to each well and allowed to shake for 1 hour at 400 rpm. Next, 5 ul of remixed antibody solutions (vol/vol) prepared in detection buffer are added to each well and allowed to incubate at room temperature overnight. After spinning the plate down at 300 rpm for […], the plate is read on an EnVision plate reader set up for Eu3+ Cryptate and fluorescence emission is measured at two different wavelengths (665 nm and 620 nm).

PARP7 = target: T1, PARP7 (Homo sapiens, UniProt Q7Z3E1); experiment: biochemical;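 note: MSD light signal quantifying PARP7 captured by a plate-immobilized probe, read after 1.5 h equilibration plus 1.5 h with SULFO-TAG anti-GST antibody at room temperature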
T1 sequence (Q7Z3E1 1-657): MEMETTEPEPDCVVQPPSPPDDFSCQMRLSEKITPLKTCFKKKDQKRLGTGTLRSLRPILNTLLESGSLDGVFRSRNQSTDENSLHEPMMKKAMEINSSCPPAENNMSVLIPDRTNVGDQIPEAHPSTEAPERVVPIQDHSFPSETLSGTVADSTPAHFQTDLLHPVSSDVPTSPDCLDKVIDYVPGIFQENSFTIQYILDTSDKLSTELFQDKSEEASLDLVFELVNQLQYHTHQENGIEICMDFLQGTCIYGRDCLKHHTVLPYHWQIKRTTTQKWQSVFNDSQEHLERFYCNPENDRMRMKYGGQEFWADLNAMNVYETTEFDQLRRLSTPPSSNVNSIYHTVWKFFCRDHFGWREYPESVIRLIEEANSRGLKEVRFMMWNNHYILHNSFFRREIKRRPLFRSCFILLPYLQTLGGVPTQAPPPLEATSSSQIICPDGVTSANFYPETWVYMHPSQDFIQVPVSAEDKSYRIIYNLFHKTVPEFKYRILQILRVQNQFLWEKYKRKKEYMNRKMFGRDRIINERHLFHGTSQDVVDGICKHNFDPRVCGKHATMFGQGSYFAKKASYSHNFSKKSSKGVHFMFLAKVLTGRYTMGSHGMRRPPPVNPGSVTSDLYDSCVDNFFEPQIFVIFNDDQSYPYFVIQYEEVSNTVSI
Protocol: Probe Displacement Assay for PARP7 Displacement of a biotinylated probe (RBN011147; Wigle et al., Cell Chemical Biology, 2020, pp. 877-887) from the PARP7 NAD+-binding site was measured in vitro using a Mesoscale Discovery electrochemiluminescent assay. […] Next, 10 μl of 10 nM PARP7 protein incubated for 1 hour at room temperature with a dose response curve of each test compound in a Greiner LDV polypropylene plate (#781201) is added to the MSD plate containing the immobilized probe. The interaction is allowed to reach equilibrium for 1.5 hours, and then 10 ul of SULFO-TAG labeled anti-GST antibody (Cat #R32AA-1) is added to each well and allowed to incubate for an additional 1.5 hours at room temperature. Finally, 10 μl of MSD read buffer T (4×, Cat. #R92C-1) is added to each well using a Bravo liquid handler to prevent air bubbles in the wells, and the plates are subsequently read in an MSD instrument. Light intensity is then measured to quantify the amount of PARP7 bound to the immobilized probe on the plate.

IC50 (PARP7)	SMILES	EC50 [1]
4.67 nM	O=C(CCCc1cc(C(F)(F)F)c(=O)[nH]n1)N1CCN(c2ncc(C(F)(F)F)cn2)CC1 [Example 11, 6-(4-oxo-4-(4-(5-(trifluoromethyl)pyrimidin-2-yl)piperazin-1-yl)butyl)-4-(trifluoromethyl)pyridazin-3(2H)-one]	1500 nM
0.364 nM	O=C(CC1(CNc2cc(C(F)(F)F)c(=O)[nH]n2)CC1)N1CCN(c2ncc(C(F)(F)F)cn2)CC1 [Example 12, 6-(((1-(2-oxo-2-(4-(5-(trifluoromethyl)pyrimidin-2-yl)piperazin-1-yl)ethyl)cyclopropyl)methyl)amino)-4-(trifluoromethyl)pyridazin-3(2H)-one]	201 nM
1.33 nM	O=C(OCCCc1cc(C(F)(F)F)c(=O)[nH]n1)N1CCN(c2ncc(C(F)(F)F)cn2)CC1 [Example 13, 3-(6-oxo-5-(trifluoromethyl)-1,6-dihydropyridazin-3-yl)propyl 4-(5-(trifluoromethyl)pyrimidin-2-yl)piperazine-1-carboxylate]	1160 nM
1.22 nM	O=C(OC/C=C/c1cc(C(F)(F)F)c(=O)[nH]n1)N1CCN(c2ncc(C(F)(F)F)cn2)CC1 [Example 14, (E)-3-(6-oxo-5-(trifluoromethyl)-1,6-dihydropyridazin-3-yl)allyl 4-(5-(trifluoromethyl)pyrimidin-2-yl)piperazine-1-carboxylate]	1000 nM
0.263 nM	O=C(CCCNc1cc(C(F)(F)F)c(=O)[nH]n1)N1CCN(c2ncc(C(F)(F)F)cn2)CC1 [Example 15, 6-((4-oxo-4-(4-(5-(trifluoromethyl)pyrimidin-2-yl)piperazin-1-yl)butyl)amino)-4-(trifluoromethyl)pyridazin-3(2H)-one]	71.9 nM
1.15 nM	O=C(CNc1cc(C(F)(F)F)c(=O)[nH]n1)N1CCN(c2ncc(C(F)(F)F)cn2)CC1 [Example 16, 6-((2-oxo-2-(4-(5-(trifluoromethyl)pyrimidin-2-yl)piperazin-1-yl)ethyl)amino)-4-(trifluoromethyl)pyridazin-3(2H)-one]	171 nM
12.1 nM	O=C(CCNc1cc(C(F)(F)F)c(=O)[nH]n1)N1CCN(c2ncc(C(F)(F)F)cn2)CC1 [Example 17, 6-((3-oxo-3-(4-(5-(trifluoromethyl)pyrimidin-2-yl)piperazin-1-yl)propyl)amino)-4-(trifluoromethyl)pyridazin-3(2H)-one]	973 nM
32.7 nM	O=C(c1cccc(Nc2cc(C(F)(F)F)c(=O)[nH]n2)c1)N1CCN(c2ncc(C(F)(F)F)cn2)CC1 [Example 18, 4-(trifluoromethyl)-6-((3-(4-(5-(trifluoromethyl)pyrimidin-2-yl)piperazine-1-carbonyl)phenyl)amino)pyridazin-3(2H)-one]	≥ 10000 nM
16.3 nM	O=C(c1cccc(CNc2cc(C(F)(F)F)c(=O)[nH]n2)c1)N1CCN(c2ncc(C(F)(F)F)cn2)CC1 [Example 19, 4-(trifluoromethyl)-6-((3-(4-(5-(trifluoromethyl)pyrimidin-2-yl)piperazine-1-carbonyl)benzyl)amino)pyridazin-3(2H)-one]	≥ 10000 nM
1.76 nM	O=C(OCCNc1cc(C(F)(F)F)c(=O)[nH]n1)N1CCN(c2ncc(C(F)(F)F)cn2)CC1 [Example 20, 2-((6-oxo-5-(trifluoromethyl)-1,6-dihydropyridazin-3-yl)amino)ethyl4-(5-(trifluoromethyl)pyrimidin-2-yl)piperazine-1-carboxylate]	≥ 10000 nM
18.6 nM	O=c1[nH]nc(NCCCS(=O)(=O)N2CCN(c3ncc(C(F)(F)F)cn3)CC2)cc1C(F)(F)F [Example 21, 4-(trifluoromethyl)-6-((3-((4-(5-(trifluoromethyl)pyrimidin-2-yl)piperazin-1-yl)sulfonyl)propyl)amino)pyridazin-3(2H)-one]	≥ 10000 nM
2.57 nM	O=C([C@@H]1C[C@H]1CNc1cc(C(F)(F)F)c(=O)[nH]n1)N1CCN(c2ncc(C(F)(F)F)cn2)CC1 [Example 22, 4-(trifluoromethyl)-6-((((1R,2R)-2-(4-(5-(trifluoromethyl)pyrimidin-2-yl)piperazine-1-carbonyl)cyclopropyl)methyl)amino)pyridazin-3(2H)-one]	≥ 10000 nM
0.521 nM	O=C(CCCCNc1cc(C(F)(F)F)c(=O)[nH]n1)N1CCN(c2ncc(C(F)(F)F)cn2)CC1 [Example 23, 6-((5-oxo-5-(4-(5-(trifluoromethyl)pyrimidin-2-yl)piperazin-1-yl)pentyl)amino)-4-(trifluoromethyl)pyridazin-3(2H)-one]	532 nM
0.141 nM	O=C([C@@H](O)CCNc1cc(C(F)(F)F)c(=O)[nH]n1)N1CCN(c2ncc(C(F)(F)F)cn2)CC1 [Example 25, (S)-6-((3-hydroxy-4-oxo-4-(4-(5-(trifluoromethyl)pyrimidin-2-yl)piperazin-1-yl)butyl)amino)-4-(trifluoromethyl)pyridazin-3(2H)-one]	21.3 nM
1.6 nM	O=C([C@H](O)CCNc1cc(C(F)(F)F)c(=O)[nH]n1)N1CCN(c2ncc(C(F)(F)F)cn2)CC1 [Example 26, (R)-6-((3-hydroxy-4-oxo-4-(4-(5-(trifluoromethyl)pyrimidin-2-yl)piperazin-1-yl)butyl)amino)-4-(trifluoromethyl)pyridazin-3(2H)-one]	901 nM
0.212 nM	O=C(CC[C@@H]1CCCN1c1cc(C(F)(F)F)c(=O)[nH]n1)N1CCN(c2ncc(C(F)(F)F)cn2)CC1 [Example 27, (S)-6-(2-(3-oxo-3-(4-(5-(trifluoromethyl)pyrimidin-2-yl)piperazin-1-yl)propyl)pyrrolidin-1-yl)-4-(trifluoromethyl)pyridazin-3(2H)-one]	9.31 nM
0.879 nM	O=C([C@@H]1CCCCN1c1cc(C(F)(F)F)c(=O)[nH]n1)N1CCN(c2ncc(C(F)(F)F)cn2)CC1 [Example 28, (S)-4-(trifluoromethyl)-6-(2-(4-(5-(trifluoromethyl)pyrimidin-2-yl)piperazine-1-carbonyl)piperidin-1-yl)pyridazin-3(2H)-one]	264 nM
30.6 nM	CN(c1cccc(C(=O)N2CCN(c3ncc(C(F)(F)F)cn3)CC2)c1)c1cc(C(F)(F)F)c(=O)[nH]n1 [Example 29, 6-(methyl(3-(4-(5-(trifluoromethyl)pyrimidin-2-yl)piperazine-1-carbonyl)phenyl)amino)-4-(trifluoromethyl)pyridazin-3(2H)-one]	≥ 10000 nM
2.32 nM	O=C(C[C@@H]1CCCCN1c1cc(C(F)(F)F)c(=O)[nH]n1)N1CCN(c2ncc(C(F)(F)F)cn2)CC1 [Example 30, (S)-6-(2-(2-oxo-2-(4-(5-(trifluoromethyl)pyrimidin-2-yl)piperazin-1-yl)ethyl)piperidin-1-yl)-4-(trifluoromethyl)pyridazin-3(2H)-one]	779 nM
0.671 nM	O=C(CC[C@@H]1CCCCN1c1cc(C(F)(F)F)c(=O)[nH]n1)N1CCN(c2ncc(C(F)(F)F)cn2)CC1 [Example 31, (S)-6-(2-(3-oxo-3-(4-(5-(trifluoromethyl)pyrimidin-2-yl)piperazin-1-yl)propyl)piperidin-1-yl)-4-(trifluoromethyl)pyridazin-3(2H)-one]	172 nM
